This is an account of results in article PMC9856044 (Biomolecules, 2023).

For data set [1], the system named is poly(dAdT)2 (AT-DNA) (DNA, polymer) AT. As to the kind of experiment: CD titration (ICD). To be noted: Na+ (sodium cacodylate, I = 0.05 M), pH 7.0, 25 °C.
Data set [2] relates to poly(dGdC)2 (GC-DNA) (DNA, polymer) GC. As to the kind of experiment: CD titration (ICD). As to conditions: Na+ (sodium cacodylate, I = 0.05 M), pH 7.0, 25 °C.
Data set [3] has as its system poly A–poly U (AU-RNA) (RNA, polymer) A/U. Kind of data set: CD titration (ICD). To be noted: Na+ (sodium cacodylate, I = 0.05 M), pH 7.0, 25 °C.
Data set [4] has as its system Tel22 (DNA, G4) AGGGTTAGGGTTAGGGTTAGGG
Kind of data set: UV thermal melting, 260 nm. As to conditions: pH 7.0, Tel22 2 µM, r = 1.0 (compound 2 µM).

Data set [5] shares this test system. As to the kind of experiment: fluorescence titration (SPECFIT). To be noted: pH 7.0, 25 °C; for logKa: K+ (potassium phosphate, I = 0.1 M); for logKa1: Na+ (sodium cacodylate, I = 0.1 M).
Data set [6] concerns poly(dAdT)2 (AT-DNA) (DNA, polymer) AT. As to the kind of experiment: UV thermal melting, 260 nm. As to conditions: Na+ (sodium cacodylate, I = 0.05 M); pH 7.0; r [compound]/[nucleotide phosphate] = 0.1; per base.
Data set [7] concerns Tel22 G-quadruplex. Kind of data set: Thermal melting of Tel22 in sodium cacodylate buffer. The format is binding, human. To be noted: Tel22, r = 1.0, sodium cacodylate buffer, pH = 7.0, I = 0.1 mol dm^−3; error ± 0.5 °C. How it is done:
(§1) Thermal melting curves for DNA, RNA and their complexes with studied compounds were determined as previously described by following the absorption change at 260 nm as a function of temperature. The absorbance of the ligands was subtracted from every curve and the absorbance scale was normalized. Tm values are the midpoints of the transition curves determined from the maximum of the first derivative and checked graphically by the tangent method. The ∆Tm values were calculated by subtracting Tm of the free nucleic acid from Tm of the complex. Every ∆Tm value here reported was the average of two measurements. The error in ∆Tm is ±0.5 °C. 5′-AGGG(TTAGGG)3–3′(Tel22) was obtained from IDT (Integrated DNA Technologies, Coralville, IA, USA). Tel22 was dissolved in 0.1 M either in sodium cacodylate or potassium phosphate buffer. The starting Tel22 oligonucleotide solution was first heated up to 95 °C for 10 min, then slowly cooled to 10 °C at the cooling rate of 1 °C/min to allow DNA oligonucleotide to adopt a G-quadruplex structure. The G-quadruplex structure was confirmed by thermal melting and CD spectra. The concentration of G quadruplex was expressed in terms of oligonucleotide structure. In fluorimetric titrations, aliquots of Tel 22 solution were added to the solution of ligands (c ~ 2 × 10^−7 M, in SI).

Data set [8] can be described thus: Solubility and aggregation (UV/Vis characterization). The format is physicochemical. To be noted: for Aggregation in aqueous buffer: sodium cacodylate buffer, I = 0.05 mol dm^−3, pH = 7.0, UV/Vis. How it is done:
The UV/vis spectra were recorded on a Varian Cary 100 Bio spectrophotometer (Agilent, Santa Clara, CA, USA), CD spectra on JASCO J815 spectrophotometer (ABL&E Handels GmbH, Wien, Austria) and fluorescence spectra on a Varian Cary Eclipse spectrophotometer (Agilent, Santa Clara, CA, USA) at 25 °C using appropriate 1 cm path quartz cuvettes.
Studied compounds, 1–6 were soluble (c = 8 × 10^−4 mol dm^−3) in DMSO. […] Therefore, the stock solution of 2 was prepared fresh before use. The experiments were done in aqueous buffer (sodium cacodylate buffer, I = 0.05 mol dm^−3; pH = 7.0).
However, the shape of UV/Vis spectra of cyanine 2 changed with increasing concentration (calibration experiment in Figure S2 in SI). In addition to the dominant maximum at 432 nm (which most likely corresponds to the monomer form of the dye), the absorption band at 413 nm becomes more intense (Figure S2 in SI). Presumably, it corresponds to the aggregated form (H-aggregate). Based on the existence of an absorption band at 432 nm, only the monomer dye form is visible at high temperature (95 °C) (Figure S8b in SI). However, after cooling the solution to 25 °C, an additional band appears at 413 nm, which corresponds to the aggregated dye form.

The target of data set [9] is Tel22 (5′-AGGG(TTAGGG)3–3′) G-quadruplex. Kind of data set: Fluorimetric titration with Tel22 in sodium cacodylate buffer (Na+ solution). The format is binding, human. How it is done: (§2) Materials. Polynucleotides were purchased as noted: poly A–poly U, calf thymus ctDNA, poly(dAdT)2 and poly(dGdC)2 (Sigma-Aldrich, St. Louis, MI, USA). Polynucleotides were dissolved in Na-cacodylate buffer, I = 0.05 mol dm^−3, pH = 7.0. The calf thymus ctDNA was additionally sonicated and filtered through a […]. Polynucleotide concentration was determined spectroscopically as the concentration of phosphates. Spectrophotometric titrations were performed at pH = 7.0 (I = 0.05 mol dm^−3, sodium cacodylate buffer) by adding aliquots of polynucleotide solution into the solution of the studied compound for fluorimetric experiments and CD experiments were done by adding aliquots of the compound stock solution into the solution of a polynucleotide. In fluorimetric experiments, an excitation wavelength of λexc = 425, 431, 423, 427, 406 and 407 nm, respectively, was used to avoid the inner filter effect caused due to increasing absorbance of the polynucleotide. Emission was collected in the range λem = 400–700 nm. Values for Ka obtained by processing titration data using the Scatchard equation [27], all have satisfactory correlation coefficients (≥0.98).
as §1
(§3) Binding constants (log Ka) and stoichiometry of complexes were calculated from the fluorimetric data using non-linear least-square program SPECFIT [46], in the concentration range that corresponded to 20–80% complex formed.

For data set [10] the target is unchanged. Kind of data set: Fluorimetric titration with Tel22 in potassium phosphate buffer (K+ solution). The format is binding, human. As to conditions: Tel22, potassium phosphate buffer, pH = 7.0, I = 0.1 mol dm^−3; SPECFIT fit. How it is done: as §2, §1, §3
In data set [11] the test system is Tel22 G-quadruplex. As to the kind of experiment: Thermal melting of Tel22 in potassium phosphate buffer. The format is binding, human. To be noted: Tel22, r = 1.0, potassium phosphate buffer, pH = 7.0, I = 0.1 mol dm^−3; error ±0.5 °C. How it is done: as §1
Data set [12] concerns HeLa cells. Kind of data set: MTT cytotoxicity assay, HeLa. To be noted: Homo sapiens, 72 h incubation, ± SD. The format is cell-based. Here is the method: (§4) Human cervical carcinoma HeLa (GIBCO BRL, Invitrogen, Waltham, MA, USA), human melanoma MDA-MB-435S and human ovarian adenocarcinoma SK-OV-3 (ATCC-LGC Standards GmbH, Wesel, Germany) cell lines were purchased from indicated cell culture banks. Normal human skin fibroblasts were isolated from the upper arm of a donor at the Neurochemical Laboratory, Department of Chemistry and Biochemistry, School of Medicine, University of Zagreb. HeLa, MDA-MB-435S and fibroblasts were grown in Dulbecco’s Modified Eagle’s Medium (DMEM; Sigma-Aldrich, St. Louis, MI, USA) while the SK-OV-3 cell line was grown in McCoy’s 5A medium (Capricorn Scientific, Ebsdorfergrund, Germany). All media were supplemented with 10% fetal bovine serum (FBS; Sigma-Aldrich) and 50 I.U./mL penicillin and 50 μg/mL streptomycin. Cells were cultured in a humidified atmosphere of 5% CO2 at 37 °C and were sub-cultured every 3–4 days. HeLa, MDA-MB-435S, SK-OV-3 cells and fibroblasts were seeded in 96 well plates. Twenty-four hours later the cells were treated, in quadruplicate, with different concentrations of compounds (dissolved in DMSO, kept at 4 °C and protected from light). Following 72 h of incubation at 37 °C, the medium was aspired and modified 3-(4,5-dimethylthiazol-2-yl)-2,5-diphenyltetrazolium bromide (MTT) assay was used to determine the cytotoxic effect of the tested compounds. Three hours later, formazan crystals were dissolved in DMSO (0.17 mL/well), the plates were mechanically agitated for 20 min and the optical density at 600 nm was determined on a microtiter plate reader (Awareness Technology Inc., Palm City, FL, USA). The experiments were repeated three times.
(Tetrazolium dyes change colour on reduction, which living cells bring about.)

The test system of data set [13] is MDA-MB-435S cells. As to the kind of experiment: MTT cytotoxicity assay, MDA-MB-435S. The format is cell-based. As to conditions: Homo sapiens, 72 h incubation, ± SD. Here is the method: as §4
The subject of data set [14] is SK-OV-3 cells. As to the kind of experiment: MTT cytotoxicity assay, SK-OV-3. The format is cell-based. To be noted: Homo sapiens, SK-OV-3, 72 h incubation, ± SD. Here is the method: as §4
Data set [15] has as its system Fibroblasts. As to the kind of experiment: MTT cytotoxicity assay, normal human skin fibroblasts. The format is cell-based. As to conditions: Fibroblast, 72 h incubation, ± SD. Here is the method:
as §4

Where [16] appears, read: K+ (potassium phosphate, I = 0.1 M).
Setting [17] is: Na+ (sodium cacodylate, I = 0.1 M).

Molecules are shown by their SMILES. Structures can show the parent of a compound that is named as a salt.

Take `CN1C(=Cc2[se]c3ccccc3[n+]2C)Sc2cc(Cl)ccc21`: the binding entry in data set [1] (positive ICD at 440 nm), in [2] (bisignate ICD +440/−410 nm) and in data set [3] (bisignate ICD +405/−385 nm) was “yes” each time. The “∆Tm” value in data set [4] (setting [16]) worked out at 3.2 °C; in data set [4] (setting [17]), 2.1 °C. This compound also showed a logKa in [5] of 7.78 ± 0.18. The compound also gave a logKa1 in [5] of 6.19 ± 0.01.

For the compound `CN1C(=Cc2[se]c3ccccc3[n+]2C)Sc2ccccc21`, the binding entry in [1] (positive ICD at 440 nm) and in data set [3] (bisignate ICD +405/−385 nm) was “yes” throughout. Moreover, the “∆Tm” value in data set [4] (setting [16]) and in [4] (setting [17]) was 0.5 °C in each case. This compound also showed a logKa in [5] of 6.88 ± 0.05. This compound had a logKa1 in data set [5] (site 1 of 2) of 7.26 ± 0.41.

For `C[n+]1c(C=C2Sc3ccccc3N2CCCS)[se]c2ccccc21`, the “∆Tm” value stood at 5.1 °C in data set [4] (setting [16]), 2.1 °C in data set [4] (setting [17]) and 4 °C in data set [6].

Consider `C[n+]1c(C=C2Sc3ccccc3N2CCS)[se]c2ccccc21`, for which the binding result in data set [1] (bisignate ICD +440/−400 nm), in data set [2] (bisignate ICD +440/−400 nm) and in data set [3] (bisignate ICD) was “yes” each time. In addition, the “∆Tm” value in data set [4] (setting [16]) came out at 6.9 °C; in [4] (setting [17]) it was 2.0 °C.

For orientation: melting point means the temperature, or range, at which the solid turns liquid. With `CN1/C(=C/c2[se]c3ccccc3[n+]2C)Sc2ccccc21` (as salt: sulphate) [Compound 3, 3-methyl-2-((3-methylbenzo[d]thiazol-2(3H)-ylidene)methyl)benzo[d][1,3]selenazol-3-ium methosulphate], the melting point was over 300 °C.

`CN1/C(=C/c2[se]c3ccccc3[n+]2C)Sc2cc(Cl)ccc21` (as salt: sulphate) [Compound 4, 2-((6-chloro-3-methylbenzo[d]thiazol-2(3H)-ylidene)methyl)-3-methylbenzo[d][1,3]selenazol-3-ium methosulphate] returned a melting point of over 300 °C.

In turn, `C[n+]1c(/C=C2\Sc3ccccc3N2CCCS)[se]c2ccccc21` (as salt: sulphate) [Compound 5, 2-((3-(3-mercaptopropyl)benzo[d]thiazol-2(3H)-ylidene)methyl)-3-methylbenzo[d][1,3]selenazol-3-ium methosulphate] displayed a melting point of 233 to 236 °C.

Take `C[n+]1c(/C=C2\Sc3ccccc3N2CCS)[se]c2ccccc21` (as salt: sulphate) [Compound 6, 2-((3-(2-mercaptoethyl)benzo[d]thiazol-2(3H)-ylidene)methyl)-3-methylbenzo[d][1,3]selenazol-3-ium methosulphate]: the melting point is 245 to 247 °C.

On to `COc1ccc2c(c1)SC(=Cc1[se]c3ccccc3[n+]1C)N2CCCS(=O)(=O)[O-]` [Compound 2, 3-(6-methoxy-2-((3-methylbenzo[d][1,3]selenazol-3-ium-2-yl)methylene)benzo[d]thiazol-3(2H)-yl)propane-1-sulfonate], for which the melting point is over 300 °C. In addition, the “∆Tm” value in data set [7] turned out to be 0 °C. For the same compound, the “Aggregation in DMSO stock solution” value in data set [8] (DMSO, after several weeks) was “prone to aggregation”. In addition, the “Aggregation in aqueous buffer” value in data set [8] was “mixture of monomer and aggregated form”. Besides, in [4] (setting [17]), the “∆Tm” value amounted to 0 °C.

As a reminder, the IC50 is the concentration that inhibits the measured activity by half. A higher IC50 goes with lower potency. As to `CN1/C(=C/c2[se]c3ccccc3[n+]2C)Sc2cc(Cl)ccc21` [Compound 4, 2-((6-chloro-3-methylbenzo[d]thiazol-2(3H)-ylidene)methyl)-3-methylbenzo[d][1,3]selenazol-3-ium methosulphate], the “logKa1 (L + G ⇆ LG)” value in data set [9] (Tel22, sodium cacodylate buffer, pH = 7.0, I = 0.1 mol dm^−3, SPECFIT fit of fluorescence titration) is 6.19 ± 0.01. Moreover, in [9] (binding affinities Tel22 vs duplex DNA, in both the Na+ and K+ solutions), the “Selectivity for G-quadruplex over duplex DNA” value is given as 100 fold. In addition, the “logKa (L + G ⇆ LG, 1:1 complex)” value in [10] was 7.78 ± 0.18. Further, the “∆Tm” value was 2.1 °C in [7] and 3.2 °C in data set [11]. Also, the IC50 was 793 ± 157 nM in [12], 614 ± 77.6 nM in data set [13], 1320 ± 125 nM in [14] and over 2500 nM in data set [15]. Further, the “Aggregation in aqueous buffer” value in [8] is given as “do not form aggregates”.
